Assay: Viscosity, Brookfield RVT Viscometer, Spindle F (Example 6)
Type: physicochemical
Conditions: compared with SCI
Method: Compositions of the inventive shampoos can have a viscosity ranging from 120,000 cps to 3,000,000 cps. Viscosity can be measured using suitable viscometer known to those of skill in the art. The preferred viscosity range is 1,000,000 cps-2,000,000 cps using a Brookfield RVT Viscometer, Spindle F at 0.5 rpm for 90 sec, with around 1,500,000 cps being the most preferred.
The viscosity of various combinations of propanediol, SCI and SLMI was measured using a Brookfield RVT Viscometer, Spindle F.

Effect of an increase in the percentage of SLMI on viscosity of the shampoo compositions: significantly increases the viscosity
SMILES: CCCCCCCCCCCC(=O)OC(C)CS(=O)(=O)[O-].[Na+] (stereo not shown) [SLMI, sodium lauroyl methyl isethionate]

— patent US11406575B2, “Water-free/anhydrous cream shampoo” (Henkel IP & Holding GmbH, priority 2020, dated 2022)
